Converted amounts (≈) assume the structure as drawn. The source made the active and inactive calls. The rule behind the calls is not given here.
Columns and labels:
Raoultella planticola [1] = assay: Antimicrobial activity against Klebsiella planticola MTCC 530 after 24 hrs by well diffusion method; type: functional; settings: MTCC 530, 24 h
Pseudomonas aeruginosa [2] = assay: Antimicrobial activity against Pseudomonas aeruginosa MTCC 2453 after 24 hrs by well diffusion method; type: functional; settings: MTCC 2453, 24 h
Escherichia coli [3] = assay: Antimicrobial activity against Escherichia coli MTCC 739 after 24 hrs by well diffusion method; type: functional; settings: MTCC 739, 24 h
Bacillus subtilis [4] = assay: Antimicrobial activity against Bacillus subtilis MTCC 121 after 24 hrs by well diffusion method; type: functional; settings: MTCC 121, 24 h
Staphylococcus aureus [5] = assay: Antimicrobial activity against Staphylococcus aureus MLS-16 MTCC 2940 after 24 hrs by well diffusion method; type: functional; settings: MLS-16 MTCC 2940, 24 h
Micrococcus luteus [6] = assay: Antimicrobial activity against Micrococcus luteus MTCC 2470 after 24 hrs by well diffusion method; type: functional; settings: MTCC 2470, 24 h
Staphylococcus aureus [7] = assay: Antimicrobial activity against Staphylococcus aureus MTCC 96 after 24 hrs by well diffusion method; type: functional; settings: MTCC 96, 24 h
Vero = assay: Cytotoxicity against african green monkey Vero cells; type: cell-based; settings: Chlorocebus sabaeus
MRC5 = assay: Cytotoxicity against human MRC5 cells; type: cell-based
[8] = system: Mycobacterium tuberculosis; assay: Antimicrobial activity against Mycobacterium tuberculosis H37Rv after 3 weeks by broth dilution method; type: functional; settings: for MIC: 504 h
Raoultella planticola [9] = assay: Antibiofilm activity against Klebsiella planticola MTCC 530 after 24 hrs by crystal violet assay; type: functional, organism-based; settings: MTCC 530, 24 h
Staphylococcus aureus [10] = assay: Antibiofilm activity against Staphylococcus aureus MLS-16 MTCC 2940 after 24 hrs by crystal violet assay; type: functional, organism-based; settings: MLS-16 MTCC 2940, 24 h
Staphylococcus aureus [11] = assay: Antibiofilm activity against Staphylococcus aureus MTCC 96 after 24 hrs by crystal violet assay; type: functional, organism-based; settings: for IC50: MTCC 96, 24 h
Candida albicans [12] = assay: Antimicrobial activity against Candida albicans MTCC 3017 at 150 ug/ml after 24 hrs by well diffusion method; type: functional, organism-based
Raoultella planticola [13] = assay: Bactericidal activity against Klebsiella planticola MTCC 530 after 24 hrs; type: functional; settings: MTCC 530, 24 h
Pseudomonas aeruginosa [14] = assay: Bactericidal activity against Pseudomonas aeruginosa MTCC 2453 after 24 hrs; type: functional; settings: MTCC 2453, 24 h
Escherichia coli [15] = assay: Bactericidal activity against Escherichia coli MTCC 739 after 24 hrs; type: functional; settings: MTCC 739, 24 h
Bacillus subtilis [16] = assay: Bactericidal activity against Bacillus subtilis MTCC 121 after 24 hrs; type: functional; settings: MTCC 121, 24 h
Staphylococcus aureus [17] = assay: Bactericidal activity against Staphylococcus aureus MLS-16 MTCC 2940 after 24 hrs; type: functional; settings: MLS-16 MTCC 2940, 24 h
Staphylococcus aureus [18] = assay: Bactericidal activity against Staphylococcus aureus MTCC 96 after 24 hrs; type: functional; settings: MTCC 96, 24 h
Micrococcus luteus [19] = assay: Bactericidal activity against Micrococcus luteus MTCC 2470 after 24 hrs; type: functional; settings: MTCC 2470, 24 h
Candida albicans [20] = assay: microbe, parasite or virus in culture; settings: MTCC 3017, 24 h
Description: Antimicrobial activity against Candida albicans MTCC 3017 after 24 hrs by well diffusion method

Staphylococcus aureus [21] = assay: Antimicrobial activity against methicillin-resistant Staphylococcus aureus after 24 hrs by microdilution method; type: functional
Enterococcus faecalis = assay: Antimicrobial activity against vancomycin -resistant Enterococcus faecalis after 24 hrs by microdilution method; type: functional

| Structure (SMILES) | MIC (Raoultella planticola [1]) [µg/mL] | MIC (Pseudomonas aeruginosa [2]) [µg/mL] | MIC (Escherichia coli [3]) [µg/mL] | MIC (Bacillus subtilis [4]) [µg/mL] | MIC (Staphylococcus aureus [5]) [µg/mL] | MIC (Micrococcus luteus [6]) [µg/mL] | MIC (Staphylococcus aureus [7]) [µg/mL] | IC50 (Vero) [µM] | IC50 (MRC5) [µM] | IC50 (Raoultella planticola [9]) [µg/mL] | IC50 (Staphylococcus aureus [10]) [µg/mL] | Activity (Candida albicans [12]) | MBC (Raoultella planticola [13]) [µg/mL] | MBC (Pseudomonas aeruginosa [14]) [µg/mL] | MBC (Escherichia coli [15]) [µg/mL] | MBC (Bacillus subtilis [16]) [µg/mL] | MBC (Staphylococcus aureus [17]) [µg/mL] | MBC (Staphylococcus aureus [18]) [µg/mL] | MBC (Micrococcus luteus [19]) [µg/mL] | MIC [8] [µg/mL] | further results |
| --- | --- | --- | --- | --- | --- | --- | --- | --- | --- | --- | --- | --- | --- | --- | --- | --- | --- | --- | --- | --- | --- |
| COc1ccc(Cn2cc(CNC(=O)c3ccc([N+](=O)[O-])o3)nn2)cc1F | 18.8 (≈ 50 µM) | > 150 | > 150 | 2.34 (≈ 6.23 µM) | 4.68 (≈ 12.5 µM) | 4.68 (≈ 12.5 µM) | > 150 | 312 | 324 | 9.8 (≈ 26.1 µM) | 3.4 (≈ 9.06 µM) | inactive | 18.8 (≈ 50 µM) | > 150 | > 150 | 4.68 (≈ 12.5 µM) | 9.37 (≈ 25 µM) | > 150 | 9.37 (≈ 25 µM) | – | Activity [8]: inactive; inhibition (Staphylococcus aureus [11]): inactive |
| Clc1ccc(COC(Cn2ccnc2)c2ccc(Cl)cc2Cl)c(Cl)c1 (stereo not drawn) [MICONAZOLE] | – | – | – | – | – | – | – | – | – | – | – | – | – | – | – | – | – | – | – | – | MIC (Candida albicans [20]): 9.37 µg/mL (≈ 22.5 µM) |
| O=C(NCc1cn(Cc2cccc([N+](=O)[O-])c2)nn1)c1ccc([N+](=O)[O-])o1 | 18.8 (≈ 50.4 µM) | > 150 | 9.37 (≈ 25.2 µM) | 2.34 (≈ 6.29 µM) | 1.17 (≈ 3.14 µM) | 4.68 (≈ 12.6 µM) | > 150 | 326 | 199 | 14.5 (≈ 38.9 µM) | 0.8 (≈ 2.15 µM) | inactive | 37.5 (≈ 101 µM) | > 150 | 18.8 (≈ 50.4 µM) | 4.68 (≈ 12.6 µM) | 2.34 (≈ 6.29 µM) | > 150 | 9.37 (≈ 25.2 µM) | 8 (≈ 21.5 µM) | IC50 (Staphylococcus aureus [11]): 84.5 µg/mL (≈ 227 µM); MIC (Staphylococcus aureus [21]): 8 µg/mL (≈ 21.5 µM); MIC (Enterococcus faecalis): > 64 µg/mL |
| COc1ccc(Cn2cc(CNC(=O)c3ccc([N+](=O)[O-])o3)nn2)cc1 | 37.5 (≈ 105 µM) | > 150 | 75 (≈ 210 µM) | 2.34 (≈ 6.55 µM) | 9.37 (≈ 26.2 µM) | 2.34 (≈ 6.55 µM) | 37.5 (≈ 105 µM) | 274 | 146 | 24 (≈ 67.2 µM) | 6.1 (≈ 17.1 µM) | inactive | 37.5 (≈ 105 µM) | > 150 | 75 (≈ 210 µM) | 4.68 (≈ 13.1 µM) | 9.37 (≈ 26.2 µM) | 75 (≈ 210 µM) | 2.34 (≈ 6.55 µM) | – | Activity [8]: inactive; IC50 (Staphylococcus aureus [11]): 12.6 µg/mL (≈ 35.3 µM) |
| COc1ccc(Cn2cc(CNC(=O)c3ccc([N+](=O)[O-])o3)nn2)cc1[N+](=O)[O-] | 9.37 (≈ 23.3 µM) | > 150 | 18.8 (≈ 46.6 µM) | 2.34 (≈ 5.82 µM) | 4.68 (≈ 11.6 µM) | 4.68 (≈ 11.6 µM) | > 150 | 176 | 198 | 6.1 (≈ 15.2 µM) | 4.1 (≈ 10.2 µM) | inactive | 18.8 (≈ 46.6 µM) | > 150 | 18.8 (≈ 46.6 µM) | 2.34 (≈ 5.82 µM) | 4.68 (≈ 11.6 µM) | > 150 | 9.37 (≈ 23.3 µM) | 16 (≈ 39.8 µM) | IC50 (Staphylococcus aureus [11]): 91.2 µg/mL (≈ 227 µM); MIC (Staphylococcus aureus [21]): 8 µg/mL (≈ 19.9 µM); MIC (Enterococcus faecalis): > 64 µg/mL |
| O=C(O)c1cn(C2CC2)c2cc(N3CCNCC3)c(F)cc2c1=O [CIPROFLOXACIN] | 0.58 (≈ 1.75 µM) | 0.58 (≈ 1.75 µM) | 0.58 (≈ 1.75 µM) | 0.58 (≈ 1.75 µM) | 0.58 (≈ 1.75 µM) | 0.58 (≈ 1.75 µM) | 0.58 (≈ 1.75 µM) | 192 | 181 | – | – | – | 1.17 (≈ 3.53 µM) | 0.58 (≈ 1.75 µM) | 0.58 (≈ 1.75 µM) | 1.17 (≈ 3.53 µM) | 1.17 (≈ 3.53 µM) | 0.58 (≈ 1.75 µM) | 0.58 (≈ 1.75 µM) | – | – |
| O=C(NCc1cn(Cc2ccc([N+](=O)[O-])cc2)nn1)c1ccc([N+](=O)[O-])o1 | 18.8 (≈ 50.4 µM) | > 150 | > 150 | 2.34 (≈ 6.29 µM) | 4.68 (≈ 12.6 µM) | 4.68 (≈ 12.6 µM) | > 150 | 291 | 213 | 17.9 (≈ 48.1 µM) | 3.8 (≈ 10.2 µM) | inactive | 37.5 (≈ 101 µM) | > 150 | > 150 | 4.68 (≈ 12.6 µM) | 4.68 (≈ 12.6 µM) | > 150 | 9.37 (≈ 25.2 µM) | 8 (≈ 21.5 µM) | inhibition (Staphylococcus aureus [11]): inactive; MIC (Staphylococcus aureus [21]): 8 µg/mL (≈ 21.5 µM); MIC (Enterococcus faecalis): > 64 µg/mL |

Source: ChEMBL document CHEMBL3091424, “Anti-tubercular agents. Part 8: synthesis, antibacterial and antitubercular activity of 5-nitrofuran based 1,2,3-triazoles” (Bioorg Med Chem Lett, 2013)
